Where two headings read alike, the source gives them in different places.
Tests used:
IL-1β, human whole blood = assay: Whole blood assay for IL-1β production; format: cell-based; conditions: read-out: Whole human blood IC50
Method: The whole blood assay is a simple method for measuring the production of IL-1b (or other cytokines) and the activity of potential inhibitors. The complexity of this assay system, with its full complement of lymphoid and inflammatory cell types, spectrum of plasma proteins and red blood cells is an ideal in vitro representation of human in vivo physiologic conditions.
Pyrogen-free syringes (˜30 cc) Pyrogen-free sterile vacuum tubes containing lyophilized Na2EDTA (4.5 mg/10 ml tube) Human whole blood sample (˜30-50 cc) 1.5 ml eppendorf tubes Test compound stock solutions (˜25 mM in DMSO or other solvent) Endotoxin-free sodium chloride solution (0.9%) and HBSS Lipopolysaccharide (Sigma; Cat. # L-3012) stock solution at 1 mg/ml in HBSS
IL-1β ELISA Kit (R & D Systems; Cat # DLB50)
TNFα ELISA Kit (R & D Systems; Cat # DTA50)
Whole Blood Assay Experimental Procedure:
Set incubator or water bath at 30° C. Aliquot 0.25 ml of blood into 1.5 ml eppendorf tubes. Note: be sure to invert the whole blood sample tubes after every two aliquots. Differences in replicates may result if the cells sediment and are not uniformly suspended. Use of a positive displacement pipette will also minimize differences between replicate aliquots.
Prepare drug dilutions in sterile pyrogen-free saline by serial dilution. A dilution series which brackets the apparent Ki for a test compound determined in an ICE inhibition assay is generally used for the primary compound screen.
Add 25 μl test compound dilution or vehicle control and gently mix the sample. Then add 5.0 μl LPS solution (250 ng/ml stocked prepared fresh: 5.0 ng/ml final concentration LPS), and mix again. Incubate the tubes at 30° C. in a water bath for 16-18 hr with occasional mixing. Alternatively, the tubes can be placed in a rotator set at 4 rpm for the same incubation period. This assay should be set up in duplicate or triplicate with the following controls: negative control—no LPS; positive control—no test inhibitor; vehicle control—the highest concentration of DMSO or compound solvent used in the experiment. Additional saline is added to all control tubes to normalize volumes for both control and experimental whole blood test samples
After the incubation period, whole blood samples are centrifuged for 10 minutes at ˜2000 rpm in the microfuge, plasma is transferred to a fresh microfuge tube and centrifuged at 1000×g to pellet residual platelets if necessary. Plasma samples may be stored frozen at −70° C. prior to assay for cytokine levels by ELISA.
We have used R & D Systems (614 McKinley Place N.E. Minneapolis, Minn. 55413) Quantikine kits for measurement of IL-1β and TNF-α. The assays are performed according to the manufacturer's directions.
We have observed IL-1β levels of ˜1-5 ng/ml in positive controls among a range of individuals. A 1:200 dilution of plasma for all samples has been sufficient in our experiments for ELISA results to fall on the linear range of the ELISA standard curves. It may be necessary to optimize standard dilutions if you observe differences in the whole blood assay. Nerad, J. L. et al., J. Leukocyte Biol., 52, pp. 687-692 (1992).

ICE = target: T1, ICE (Homo sapiens, UniProt P29466); assay: Enzyme assay with UV-visible substrate (visible ICE assay, Succinyl-Tyr-Val-Ala-Asp-pNitroanilide); format: biochemical
T1 sequence (P29466 120-297 limits assumed): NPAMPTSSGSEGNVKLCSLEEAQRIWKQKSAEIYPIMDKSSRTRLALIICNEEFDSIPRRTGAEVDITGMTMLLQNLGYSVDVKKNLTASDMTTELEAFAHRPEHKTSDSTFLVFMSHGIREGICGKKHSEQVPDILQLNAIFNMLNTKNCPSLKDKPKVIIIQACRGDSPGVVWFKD
T1 sequence (P29466 317-404 limits assumed): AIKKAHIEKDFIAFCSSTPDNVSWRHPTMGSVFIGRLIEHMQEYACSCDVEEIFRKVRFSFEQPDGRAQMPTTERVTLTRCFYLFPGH
Procedure, shortened: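 Human ICE was preincubated with inhibitor in DMSO and buffer for 15 min at room temperature, then succinyl-Tyr-Val-Ala-Asp-pNA was added. pNA release was followed at 405-603 nm for 20 min at 37° C. Ki and inhibition mode came from fitting rates to standard kinetic equations.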

[1] = Homo sapiens, * = values obtained upon reassay

Compound: CN(C)c1cccc(C(=O)N[C@H]2CCC(=O)N3CCC[C@@H](C(=O)N[C@H]4CC(=O)OC4OCc4ccccc4)N3C2=O)c1 (mixture of isomers) [Compound 213g, [1S,9S (2RS,3S)]9-[(3-Dimethylaminobenzoyl)amino]-6,10-dioxo-1,2,3,4,7,8,9,10-octahydro-N-(2-Benzyloxy-5-oxotetrahydrofuran-3-yl)-6H-pyridazino[1,2-a][1,2]diazepine-1-carboxamide]
- IC50 (IL-1β, human whole blood; Table 17): 2.2 µM

Compound: CCOC1OC(=O)C[C@@H]1NC(=O)[C@@H]1CCCN2C(=O)CC[C@H](NC(=O)c3nccc4ccccc34)C(=O)N12 (mixture of isomers) [Compound 550q, [1S,9S(2RS,3S)]N-(2-Ethoxy-5-oxotetrahydrofuran-3-yl)-6,10-dioxo-9-(isoquinolin-1-oylamino)-1,2,3,4,7,8,9,10-octahydro-6-H-pyridazino[1,2-a][1,2]diazepine-1-carboxamide]
- IC50 (IL-1β, human whole blood; Table 17): 0.7 µM

Compound: CCOC1OC(=O)C[C@@H]1NC(=O)CN1C(=O)[C@@H](NC(=O)c2cc(C)c(O)c(C)c2)CN(C(=O)CO)c2ccccc21 (mixture of isomers) [Compound 692b, (3S)-2-Oxo-3-(3,5-dimethyl-4-hydroxybenzoyl)amino-5-hydroxyacetyl-N-[(2RS,3S)-ethoxy-5-oxo-tetrahydrofuran-3-yl]-2,3,4,5-tetrahydro-1H-1,5-benzodiazepine-1-acetamide]
- IC50 (IL-1β, human whole blood; Table 17): 1.8 µM

Compound: CC(C)(C)OC(=O)C[C@@H](C=NOCCc1ccccc1)NC(=O)[C@@H]1CCCN2C(=O)CC[C@H](NC(=O)c3ccccc3)C(=O)N12 [Compound 307b, [3S(1S,9S)3-(9-Benzoylamino-6,10-dioxo-1,2,3,4,7,8,9,10-octahydro-6H-pyridazino-[1,2-a][1,2]diazapine-1-carboxamido)-amino]-4-oxobutanoic acid t-butyl ester, O-(2-(phenyl)ethyl)oxime]
- Ki (ICE; Table 5): 0.165 µM
- IC50 (IL-1β, human whole blood; * = values obtained upon reassay): 14 µM

Compound: O=C[C@H](CC(=O)O)NC(=O)[C@@H]1CCCN2C(=O)CC[C@H](NC(=O)c3ncc[nH]3)C(=O)N12 [Compound 445]
- Ki (ICE; Table 5): 0.135 µM
- IC50 (IL-1β, human whole blood; [1]): 4 µM

Compound: O=C[C@H](CC(=O)O)NC(=O)[C@@H]1CCCN2C(=O)CC[C@H](NC(=O)c3cnns3)C(=O)N12 [Compound 446]
- Ki (ICE; Table 5): 0.062 µM
- IC50 (IL-1β, human whole blood; [1]): 3 µM

Compound: CC(=O)N(C)c1ccc(C(=O)N[C@H]2CCC(=O)N3CCC[C@@H](C(=O)N[C@H](C=O)CC(=O)O)N3C2=O)cc1 [Compound 448]
- Ki (ICE; Table 5): 0.13 µM
- IC50 (IL-1β, human whole blood; [1]): 4 µM

Compound: CC(=O)N1C[C@H](NC(=O)c2ccccc2)C(=O)N(CC(=O)N[C@H](C=O)CC(=O)O)c2c(C)cc(C)cc21 [Compound 605o, (3S)-3-[(3S)-2-Oxo-3-benzoylamino-5-acetyl-2,3,4,5-tetrahydro-7,9-dimethyl-1H-1,5-benzodiazepin-1-acetylamino]-4-oxo-butyric acid]
- Ki (ICE; Table 5): 0.072 µM
- IC50 (IL-1β, human whole blood; [1]): 18 µM

Compound: COc1c(Cl)cc(C(=O)N[C@H]2CN(C(C)=O)c3ccccc3N(CC(=O)N[C@H](C=O)CC(=O)O)C2=O)cc1Cl [Compound 669, (3S)-3-[(3S)-2-Oxo-3-(3,5-dichloro-4-methoxybenzoyl)amino-5-acetyl-2,3,4,5-tetrahydro-1H-1,5-benzodiazepine-1-acetylamino]-4-oxo-butyric acid]
- Ki (ICE; Table 17): 0.014 µM
- IC50 (IL-1β, human whole blood; Homo sapiens, Table 17): 10 µM

Compound: COc1cccc(OC)c1C(=O)C(=O)N[C@H]1CN(C(=O)CO)c2ccccc2N(CC(=O)N[C@H]2CC(=O)OC2OCc2ccccc2)C1=O (stereo partly drawn) [Compound 677, (3S)-2-Oxo-3-(1,6-dimethoxybenzoylformyl)amino-5-(2-hydroxy)acetyl-N-[(2RS,3S)-benzyloxy-5-oxo-tetrahydrofuran-3-yl]-2,3,4,5-tetrahydro-1H-1,5-benzodiazepine-1-acetamide]
- IC50 (IL-1β, human whole blood; Homo sapiens, Table 17): 0.61 µM

Compound: COCC(=O)N1C[C@H](NC(=O)c2cc(C)c(O)c(C)c2)C(=O)N(CC(=O)N[C@H](C=O)CC(=O)O)c2ccc(F)cc21 [Compound 689b-1, (3S)-3-[(3S)-2-Oxo-3-(3,5-dimethyl-4-hydroxybenzoyl)amino-5-methoxyacetyl-2,3,4,5-tetrahydro-7-fluoro-1H-1,5-benzodiazepine-1-acetylamino]-4-oxobutyric acid]
- Ki (ICE; Table 27): 0.0035 µM
- IC50 (IL-1β, human whole blood; Homo sapiens, Table 27): 2.7 µM

Compound: Cc1cc(C(=O)N[C@H]2CN(C(=O)CO)c3ccccc3N(CC(=O)NC3CC(=O)OC3OCc3ccccc3)C2=O)cc(C)c1O (stereo partly drawn) [Compound 695c, (3S)-2RS-Oxo-3-(3,5-dimethyl-4-hydroxybenzoyl)amino-5-hydroxyacetyl-N-(2-benzyloxy-5-oxo-tetrahydrofuran-3-yl)-2,3,4,5-tetrahydro-1H-1,5-benzodiazepine-1-acetamide]
- IC50 (IL-1β, human whole blood; Table 17): 2.5 µM

Compound: Nc1c(Cl)cc(C(=O)N[C@H]2CN(C(=O)CO)c3ccccc3N(CC(=O)N[C@H](C=O)CC(=O)O)C2=O)cc1Cl [Compound 697]
- Ki (ICE; Table 27): 0.0018 µM
- IC50 (IL-1β, human whole blood; Homo sapiens, Table 27): 5 µM

Compound: O=C[C@H](CC(=O)O)NC(=O)CN1C(=O)[C@@H](NC(=O)c2nccc3ccccc23)CN(C=O)c2ccccc21 [Compound 698, (3S)-3-[(3S)-2-oxo-3-isoquinolin-1-oylamino-5-formyl-2,3,4,5-tetrahydro-1H-1,5-benzodiazepine-1-acetylamino]-4-oxobutyric acid]
- Ki (ICE; Table 27): 0.018 µM
- IC50 (IL-1β, human whole blood; Homo sapiens, Table 27): 13.5 µM

Compound: Cc1cc(C(=O)N[C@H]2CN(C(=O)COc3ccccc3)c3ccccc3N(CC(=O)N[C@H](C=O)CC(=O)O)C2=O)cc(C)c1O [Compound 721]
- Ki (ICE; Table 27): 0.0013 µM
- IC50 (IL-1β, human whole blood; Homo sapiens, Table 27): 5 µM

Compound: CCOC(=O)N1C[C@H](NC(=O)c2cc(C)c(O)c(C)c2)C(=O)N(CC(=O)N[C@H](C=O)CC(=O)O)c2ccccc21 [Compound 722]
- Ki (ICE; Table 27): 0.005 µM
- IC50 (IL-1β, human whole blood; Homo sapiens, Table 27): 5 µM

Compound: COC(=O)N1C[C@H](NC(=O)c2cc(C)c(O)c(C)c2)C(=O)N(CC(=O)N[C@H](C=O)CC(=O)O)c2ccccc21 [Compound 723]
- Ki (ICE; Table 27): 0.0023 µM
- IC50 (IL-1β, human whole blood; Homo sapiens, Table 27): 2 µM

Compound: CCC(=O)N1C[C@H](NC(=O)c2cc(C)c(O)c(C)c2)C(=O)N(CC(=O)N[C@H](C=O)CC(=O)O)c2ccccc21 [Compound 724]
- Ki (ICE; Table 27): 0.002 µM
- IC50 (IL-1β, human whole blood; Homo sapiens, Table 27): 1.8 µM

Compound: Cc1cc(C(=O)N[C@H]2CN(C(=O)C(C)C)c3ccccc3N(CC(=O)N[C@H](C=O)CC(=O)O)C2=O)cc(C)c1O [Compound 725]
- Ki (ICE; Table 27): 0.0037 µM
- IC50 (IL-1β, human whole blood; Homo sapiens, Table 27): 3 µM

Compound: Cc1cc(C(=O)N[C@H]2CNc3ccccc3N(CC(=O)N[C@H](C=O)CC(=O)O)C2=O)cc(C)c1O [Compound 727]
- Ki (ICE; Table 27): 0.05 µM
- IC50 (IL-1β, human whole blood; Homo sapiens, Table 27): 2.3 µM

Compound: CCOC(=O)C(=O)N1C[C@H](NC(=O)c2cc(C)c(O)c(C)c2)C(=O)N(CC(=O)N[C@H](C=O)CC(=O)O)c2ccccc21 [Compound 729]
- Ki (ICE; Table 27): 0.028 µM
- IC50 (IL-1β, human whole blood; Homo sapiens, Table 27): 2.8 µM

Compound: CC(=O)N[C@@H](CC(=O)O)C(=O)N[C@H]1CN(C(=O)CO)c2ccccc2N(CC(=O)N[C@H](C=O)CC(=O)O)C1=O [Compound 730]
- Ki (ICE; Table 27): 0.09 µM
- IC50 (IL-1β, human whole blood; Homo sapiens, Table 27): 8 µM

Compound: COc1cc(C(=O)N[C@H]2CN(C(=O)CO)c3ccccc3N(CC(=O)N[C@H](C=O)CC(=O)O)C2=O)cc(OC)c1O [Compound 732]
- Ki (ICE; Table 27): 0.005 µM
- IC50 (IL-1β, human whole blood; Homo sapiens, Table 27): 1.8 µM

Compound: COc1cc(C(=O)N[C@H]2CN(C(=O)CO)c3ccccc3N(CC(=O)N[C@H](C=O)CC(=O)O)C2=O)ccc1O [Compound 733]
- Ki (ICE; Table 27): 0.005 µM
- IC50 (IL-1β, human whole blood; Homo sapiens, Table 27): 1.5 µM

Compound: O=C[C@H](CC(=O)O)NC(=O)CN1C(=O)[C@@H](NC(=O)c2nccc3ccccc23)CN(C(=O)Cc2cccnc2)c2ccccc21 [Compound 734]
- Ki (ICE; Table 27): 0.009 µM
- IC50 (IL-1β, human whole blood; Homo sapiens, Table 27): 6 µM

Compound: CS(=O)(=O)CC(=O)N1C[C@H](NC(=O)c2nccc3ccccc23)C(=O)N(CC(=O)N[C@H](C=O)CC(=O)O)c2ccccc21 [Compound 735]
- Ki (ICE; Table 27): 0.006 µM
- IC50 (IL-1β, human whole blood; Homo sapiens, Table 27): 10 µM
